In US4401660A, “Ester derivatives of 5-O-mycaminosyl tylonolide and method of using same” (Eli Lilly and Company, priority 1981, dated 1983):
Where two headings read alike, the source gives them in different places.

Experiments:
[1] = tested on: Mycoplasma hyorhinis; experiment: MIC, broth-dilution microtiter test (Table III); assay type: cell-based; set-up: unit not given here
Method: (§1) The MIC's in Table II were determined by standard agar-dilution assays. The MIC's in Table III were obtained using a conventional broth-dilution microtiter test.

[2] = tested on: Pasteurella haemolytica 41D; experiment: MIC, broth-dilution microtiter test (Table III); assay type: cell-based; set-up: unit not given here
Method: as §1

[3] = tested on: Pasteurella multocida 40G; experiment: MIC, broth-dilution microtiter test (Table III); assay type: cell-based; set-up: unit not given here
Method: as §1

[4] = tested on: Mycoplasma gallisepticum; experiment: MIC, broth-dilution microtiter test (Table III); assay type: cell-based; set-up: unit not given here
Method: as §1

[5] = tested on: Pasteurella multocida 22A; experiment: MIC, broth-dilution microtiter test (Table III); assay type: cell-based; set-up: unit not given here
Method: as §1

[6] = tested on: Pasteurella multocida 17E; experiment: MIC, broth-dilution microtiter test (Table III); assay type: cell-based; set-up: unit not given here; conditions: bovine isolate
Method: as §1

[7] = tested on: Streptococcus sp. 80; experiment: MIC, broth-dilution microtiter test (Table III); assay type: cell-based; set-up: unit not given here
Method: as §1

[8] = tested on: Pasteurella haemolytica 22C; experiment: MIC, broth-dilution microtiter test (Table III); assay type: cell-based; set-up: unit not given here
Method: as §1

[9] = tested on: Staphylococcus aureus; experiment: MIC, broth-dilution microtiter test (Table III); assay type: cell-based; set-up: unit not given here
Method: as §1

[10] = tested on: Pasteurella haemolytica 23C; experiment: MIC, broth-dilution microtiter test (Table III); assay type: cell-based; set-up: unit not given here
Method: as §1

[11] = tested on: Pasteurella multocida 60A; experiment: MIC, broth-dilution microtiter test (Table III); assay type: cell-based; set-up: unit not given here; conditions: avian isolate
Method: as §1

[12] = tested on: Pasteurella multocida 68C; experiment: MIC, broth-dilution microtiter test (Table III); assay type: cell-based; set-up: unit not given here
Method: as §1

[13] = tested on: Haemophilus influenzae R252; experiment: MIC, standard agar-dilution assay (Table II); assay type: cell-based; set-up: unit not given here; conditions: Haemophilus influenzae R252, ampicillin-resistant strain
Method: as §1

[14] = tested on: Staphylococcus epidermidis EPI2; experiment: MIC, standard agar-dilution assay (Table II); assay type: cell-based; set-up: unit not given here
Method: as §1

[15] = tested on: Haemophilus influenzae Holt; experiment: MIC, standard agar-dilution assay (Table II); assay type: cell-based; set-up: unit not given here; conditions: ampicillin-sensitive strain
Method: as §1

[16] = tested on: Streptococcus pneumoniae Park I; experiment: MIC, standard agar-dilution assay (Table II); assay type: cell-based; set-up: unit not given here
Method: as §1

[17] = tested on: Streptococcus pyogenes C203; experiment: MIC, standard agar-dilution assay (Table II); assay type: cell-based; set-up: unit not given here
Method: as §1

[18] = tested on: Staphylococcus aureus X400; experiment: MIC, standard agar-dilution assay (Table II); assay type: cell-based; set-up: unit not given here; conditions: Staphylococcus aureus X400, methicillin-resistant strain
Method: as §1

[19] = tested on: Staphylococcus aureus S13E; experiment: MIC, standard agar-dilution assay (Table II); assay type: cell-based; set-up: unit not given here
Method: as §1

[20] = tested on: Staphylococcus aureus V41; experiment: MIC, standard agar-dilution assay (Table II); assay type: cell-based; set-up: unit not given here; conditions: Staphylococcus aureus V41, penicillin-resistant strain
Method: as §1

[21] = tested on: Streptococcus Group D X66; experiment: MIC, standard agar-dilution assay (Table II); assay type: cell-based; set-up: unit not given here
Method: as §1

[22] = tested on: Staphylococcus epidermidis EPI1; experiment: MIC, standard agar-dilution assay (Table II); assay type: cell-based; set-up: unit not given here
Method: as §1

[23] = tested on: Staphylococcus aureus X1.1; experiment: MIC, standard agar-dilution assay (Table II); assay type: cell-based; set-up: unit not given here
Method: as §1

[24] = tested on: Streptococcus Group D 9960; experiment: MIC, standard agar-dilution assay (Table II); assay type: cell-based; set-up: unit not given here
Method: as §1

[25] = tested on: Pasteurella multocida; experiment: Treatment of Pasteurella infections in chicks (Table V); assay type: in vivo, one-day-old chicks; conditions: 30 mg/kg by subcutaneous injection one and four hours post challenge; for mortality at 30 mg/kg: Pasteurella multocida, sc, 4 h, read-out: Deaths in Treated Chicks/Number Treated (converted)
Method in brief: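 One-day-old chicks challenged subcutaneously with avian P. multocida (0.1 ml of 10^-3 dilution of 20-hour tryptose broth culture). Esters given at 30 mg/kg subcutaneously at 1 and 4 hours post challenge. Untreated infected controls, ten per group.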

[26] = tested on: Streptococcus pyogenes C203; experiment: ED50 in mice with experimental infections (Table IV); assay type: in vivo; conditions: doses given 1 and 4 hours postinfection; for ED50: Streptococcus pyogenes
Method in brief: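 Mice with experimental infections received test compound twice, at 1 and 4 h postinfection. ED50 is the dose in mg/kg (per administration, ×2) protecting 50% of animals.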

[27] = tested on: Mycoplasma synoviae; experiment: MIC, broth-dilution microtiter test (Table III); assay type: cell-based; set-up: unit not given here
Method: as §1

[28] = C203, oral, read-out: ED50, Oral
[29] = C203, sc, subcutaneous, read-out: ED50, Subcutaneous

| Compound | minimal inhibitory concentration (MIC) [1] | minimal inhibitory concentration (MIC) [2] | minimal inhibitory concentration (MIC) [3] | minimal inhibitory concentration (MIC) [4] | minimal inhibitory concentration (MIC) [5] | minimal inhibitory concentration (MIC) [6] | minimal inhibitory concentration (MIC) [7] | minimal inhibitory concentration (MIC) [8] | minimal inhibitory concentration (MIC) [9] | minimal inhibitory concentration (MIC) [10] | minimal inhibitory concentration (MIC) [11] | minimal inhibitory concentration (MIC) [12] | minimal inhibitory concentration (MIC) [14] | minimal inhibitory concentration (MIC) [16] | minimal inhibitory concentration (MIC) [17] | minimal inhibitory concentration (MIC) [18] | minimal inhibitory concentration (MIC) [19] | minimal inhibitory concentration (MIC) [20] | minimal inhibitory concentration (MIC) [21] | minimal inhibitory concentration (MIC) [22] | further results |
| --- | --- | --- | --- | --- | --- | --- | --- | --- | --- | --- | --- | --- | --- | --- | --- | --- | --- | --- | --- | --- | --- |
| CCC1OC(=O)CC(O)C(C)C(OC2OC(C)C(O)C(N(C)C)C2O)C(CC=O)CC(C)C(=O)C=CC(C)=CC1COC(=O)[C@H](NC(=O)OC(C)(C)C)c1ccccc1 (stereo partly drawn) [Compound 40, 23-O-(D-t-BOC-Phenylglycyl)-OMT] | 0.39 | 12.5 | 6.25 | < 0.05 | 12.5 | 6.25 | 0.195 | 12.5 | 0.78 | 12.5 | 6.25 | 6.25 | 0.5 | 0.06 | 0.125 | 1 | 0.5 | 1 | 0.5 | 0.5 | minimal inhibitory concentration (MIC) [13]: 2; minimal inhibitory concentration (MIC) [15]: 2; minimal inhibitory concentration (MIC) [23]: 0.5; minimal inhibitory concentration (MIC) [24]: 0.5; mortality at 30 mg/kg [25]: 100%; ED50 [26, 28]: 116 mg/kg; ED50 [26, 29]: 5 mg/kg |
| CCC1OC(=O)CC(O)C(C)C(OC2OC(C)C(O)C(N(C)C)C2O)C(CC=O)CC(C)C(=O)C=CC(C)=CC1COC(=O)COc1ccccc1 (stereo not shown) [Compound 36, 23-O-Phenoxyacetyl-OMT] | 1.56 | 3.12 | 1.56 | < 0.05 | 3.12 | 1.56 | < 0.05 | 3.12 | 0.39 | 3.12 | 1.56 | 0.78 | 0.25 | 0.03 | 0.06 | 0.25 | 0.125 | 0.25 | 0.125 | 0.125 | minimal inhibitory concentration (MIC) [13]: 0.5; minimal inhibitory concentration (MIC) [15]: 0.5; minimal inhibitory concentration (MIC) [23]: 0.125; minimal inhibitory concentration (MIC) [24]: 0.125; mortality at 30 mg/kg [25]: 10%; ED50 [26, 28]: > 150 mg/kg; ED50 [26, 29]: 6 mg/kg |
| CCC1OC(=O)CC(O)C(C)C(OC2OC(C)C(O)C(N(C)C)C2O)C(CC=O)CC(C)C(=O)C=CC(C)=CC1COC(=O)Cc1cccnc1 (stereo not shown) [Compound 44, 23-O-(3-Pyridylacetyl)-OMT] | 0.78 | 6.25 | 3.12 | 0.78 | 3.12 | 3.12 | 0.39 | 3.12 | 0.39 | 6.25 | 0.78 | 3.12 | 0.125 | 0.03 | 0.015 | 0.25 | 0.25 | 0.25 | 0.125 | 0.125 | minimal inhibitory concentration (MIC) [27]: < 0.05; minimal inhibitory concentration (MIC) [23]: 0.25; minimal inhibitory concentration (MIC) [24]: 0.125; mortality at 30 mg/kg [25]: 0%; ED50 [26, 28]: 150 mg/kg; ED50 [26, 29]: 13 mg/kg |
| CCC1OC(=O)CC(O)C(C)C(OC2OC(C)C(O)C(N(C)C)C2O)C(CC=O)CC(C)C(=O)C=CC(C)=CC1COP(=O)(Oc1ccccc1)Oc1ccccc1 (stereo not shown) [Compound 48, 23-O-(Diphenylphosphoryl)-OMT] | 0.78 | 6.25 | 6.25 | 0.78 | 6.25 | 6.25 | 0.195 | 6.25 | 0.39 | 12.5 | 6.25 | 6.25 | 0.25 | 0.03 | 0.125 | 0.25 | 0.25 | 0.25 | 0.25 | 0.25 | minimal inhibitory concentration (MIC) [27]: 0.78; minimal inhibitory concentration (MIC) [23]: 0.25; minimal inhibitory concentration (MIC) [24]: 0.25; Deaths in Treated Chicks/Number Treated [25]: 10/10; ED50, Oral ([26]; oral): > 150 mg/kg × 2; ED50, Subcutaneous ([26]; subcutaneous): > 30 mg/kg × 2 |
